Data set [1] can be described thus: DPPH free radical scavenging activity assay. Also noted: DPPH inhibition activity (Inhibition %): dose or concentration left out as unconfirmed. The note with it: mean ± S.E.M (n = 3); for IC50: 0.1 mM DPPH in ethanol, 30 min, 517 nm, read-out: DPPH inhibition activity IC50. Here is the method: The free radical scavenging activity of compounds 1, 4, 5, 7, 8, 11−18, and 20 was measured with DPPH^• using the method of Chiu et al.. Briefly, 0.1 mM solution of DPPH^• in ethanol was prepared, and sample (20 μL) was added. The sample was thoroughly mixed and kept in the dark for 30 min. The absorbance was measured at 517 nm on a Quant universal microplate spectrophotometer. α-Tocopherol (Sigma Chemical Co.) was used as a standard agent. A lower absorbance of the reaction mixture indicated a higher free radical scavenging activity. The sample concentration that was used to provide the IC50 data was calculated from a graph plotting inhibition percentage against sample concentration. Tests were performed in triplicate.
On the technique in general: Loss of DPPH colour is used to gauge radical scavenging.

For data set [2], the system named is SF-268 human central nervous system tumor cell line. The experiment in a line: Cytotoxicity assay, SF-268. Type of data set: cell-based. The settings on record: mean ± SD (n = 3–8). Here is the method:
(§1) Compounds 1−8, 11−18, 20, and 21 were subjected to cytotoxic evaluation. The clinically applied anticancer agent, actinomycin D, was used as a positive control for the cytotoxicity assays.
(§2) The cytotoxicity assay was carried out according to procedures that have been previously described in the literature.

The subject of data set [3] is MCF-7 human breast tumor cell line. The experiment in a line: Cytotoxicity assay, MCF-7. Type of data set: cell-based. The settings on record: MCF7, mean ± SD (n = 3–8). As for the experimental part: as §1, §2
Data set [4] concerns NCI-H460 human lung tumor cell line. Description: Cytotoxicity assay, NCI-H460. The note with it: mean ± SD (n = 3–8). Type of data set: cell-based. As for the experimental part:
as §1, §2

Data set [5] has the same test system. Further details: method as in PMID 20704331. The settings on record: positive control; cited from earlier work.
The test system of data set [6] is MCF-7 human breast tumor cell line. Further details: method as in PMID 20704331. The settings on record: positive control; cited from earlier work.
Data set [7] deals with SF-268 human central nervous system tumor cell line. Also noted: method as in PMID 20704331. The note with it: positive control; cited from earlier work.

Where two headings read alike, the source gives them in different places. Numbered stars: 1 amine (or outer) side, 2 acyl side, 3 side chain; on linkers, the order of the positions; unused ones are H or OH. Bridge positions count the residues as written; N and C are the ends. Square brackets hold non-standard residues; d marks the D form. Peptide text beside a SMILES is read from it. I, II: the chains in the order shown. Actinocin(9to1) = Cc1c2oc3c(C)ccc(C(=O)[*:1])c3nc-2c(C(=O)[*:2])c(N)c1=O; NMeV = CN[C@H](C(=O)O)C(C)C; Sar = CNCC(=O)O

The IC50 is the concentration that inhibits the measured activity by half. In general, melting point refers to the temperature, or range, at which the solid turns liquid.

For the compound `COc1cc(O)cc2c1-c1c(O)cc(cc1O)CCCCCCCCCCCCCC2` [Compound 11, methylgraviphane], the “DPPH inhibition activity (Inhibition %)” value in data set [1] was “(28.21 ± 0.23) %”.

For `COc1cc(O)cc(CCCCCCC/C=C/CCCCCc2cc(O)cc(O)c2)c1` [Compound 16, dehydrobisgravillol], the IC50 in data set [1] stood at 28.9 ± 0.67 µM.

In the case of `Oc1cc(O)c2c(c1)CCCCCCCCCCCCCCc1cc(O)c-2c(O)c1` [Compound 13, graviphane], the IC50 in data set [1] was found to be 3.96 ± 0.55 µM.

`Oc1cc2cc(c1)Oc1c(O)cc(cc1O)[C@H](O)CCCCCCCCCCCCC2` [Compound 5, gravicycle]: the IC50 in data set [1] is 25.7 ± 0.32 µM.

With `Oc1cc(O)cc(CCCCCC=CCCCCCCCc2cc(O)cc(O)c2)c1` [Compound 18, 5-[14'-(3'',5''-dihydroxyphenyl)-cis-tetradec-6'-en-1'-yl]benzene-1,3-diol], the IC50 in data set [1] was 35.2 ± 0.48 µM.

For the compound `Oc1cc2cc(c1)Oc1c(O)cc(cc1O)CCCCCCCCCCCCCC2` [Compound 7, robustol], the IC50 in data set [1] was 28.8 ± 0.42 µM.

In the case of `COC(=O)/C=C/C1(O)C=CC(=O)C=C1` [Compound 1, 4-hydroxy-4-(3-methoxycarbonyl)ethenylcyclohexadien-1-one], the 50% inhibitory concentration (IC50) stood at 23 ± 0.53 µM in data set [1], 5.9 ± 0.1 µM in data set [2], 15 ± 3 µM in data set [3] and 10.8 ± 2.3 µM in data set [4].

For `CCCCCCCCCCCCCCCc1cc(O)cc(O)c1` [Compound 20, cis-5-n-pentadecylresorcinol], the “DPPH inhibition activity (Inhibition %)” value in data set [1] is “(21.32 ± 0.21) %”.

Turning to `Cc1c(C)c2c(c(C)c1O)CC[C@@](C)(CCC[C@H](C)CCC[C@H](C)CCCC(C)C)O2` [α-tocopherol, reference compound], the IC50 in data set [1] amounted to 3.1 ± 0.05 µM.

As to `Cc1c2oc3c(C)ccc(C(=O)N[C@@H]4C(=O)N[C@H](C(C)C)C(=O)N5CCC[C@H]5C(=O)N(C)CC(=O)N(C)[C@@H](C(C)C)C(=O)O[C@@H]4C)c3nc-2c(C(=O)N[C@@H]2C(=O)N[C@H](C(C)C)C(=O)N3CCC[C@H]3C(=O)N(C)CC(=O)N(C)[C@@H](C(C)C)C(=O)O[C@@H]2C)c(N)c1=O` [Actinomycin D, actinomycin D] (I: T[dV]P[Sar][NMeV] / II: T[dV]P[Sar][NMeV]; ester I:1-I:C, II:1-II:C; linker I:N-II:N via Actinocin(9to1)), the results for the IC50 in data set [5], in data set [6] and in data set [7] were 0.008 µM, 0.103 µM and 0.016 µM, respectively.

In the case of `COc1cc(O)cc2c1-c1c(O)cc(cc1O)CCCCCCCC=CCCCCC2` [Compound 12, methyldehydrograviphane], the IC50 in data set [1] is 15.7 ± 0.31 µM.

For the compound `Oc1cc2cc(c1)Oc1c(O)cc(cc1O)CCCCCCCC=CCCCCC2` [Compound 8, dehydrobustol-A], the IC50 in data set [1] came out at 11.8 ± 0.88 µM.

Turning to `COC(=O)C=Cc1cc(O)ccc1O` [Compound 4, methyl 2,5-dihydroxycinnamate], the IC50 in data set [1] is 0.53 ± 0.09 µM; in data set [2], greater than 50 µM; in data set [3] it was greater than 50 µM; in data set [4], greater than 50 µM.

On to `COc1cc(O)cc(CCCCCCCCCCCCCCc2cc(O)cc(O)c2)c1` [Compound 15, bisgravillol], for which the IC50 in data set [1] was found to be 36.7 ± 0.43 µM.

Regarding `Oc1cc(O)cc(CCCCCCCCCCCCCCc2cc(O)cc(O)c2)c1` [Compound 17, bis-norstriatol], the concentration for half-maximal inhibition (IC50) in data set [1] was 31.3 ± 0.34 µM.

Consider `CCOc1ccc(O)c(C=CC(=O)OC)c1` [Compound 3, methyl 5-ethoxy-2-hydroxycinnamate], for which the melting point fell in the range of 98 to 100 °C. In addition, the IC50 in data set [2] is greater than 50 µM. Further, in data set [3], the concentration for half-maximal inhibition (IC50) is greater than 50 µM. Besides, the half-maximal inhibitory concentration (IC50) in data set [4] was greater than 50 µM.

Turning to `Oc1cc(O)c2c(c1)CCCCC/C=C/CCCCCCCc1cc(O)c-2c(O)c1` [Compound 14, dehydrograviphane], the IC50 in data set [1] turned out to be 2.05 ± 0.22 µM.

In turn, `CCCCCCCCCCCCCCC[C@H]1CC(=O)C[C@@H](O)C1` (relative stereo) [Compound 2, cis-3-hydroxy-5-pentadecylcyclohexanone] gave a melting point of 62 to 64 °C. In data set [2], this compound displayed an IC50 of 20.5 ± 0.6 µM. In data set [3], this compound registered an IC50 of 26.7 ± 1.9 µM. The same compound displayed an IC50 in data set [4] of 42.6 ± 3.6 µM.

These data come from paper PMC6264741, “Chemical Constituents and Biological Studies of the Leaves of Grevillea robusta” (Molecules, 2011).
